Columns and labels:
A2BAR = target: T1, A2BAR (Homo sapiens, UniProt P29275); assay: Functional study at A2BAR (GloSensor cAMP assay; inhibition of NECA-stimulated adenylyl cyclase activity); type: cell-based; conditions: Ki calculated from IC50 of inhibition of NECA-stimulated adenylyl cyclase activity, CHO cells
T1 construct: expressed in transfected cells
T1 sequence (P29275 1-332): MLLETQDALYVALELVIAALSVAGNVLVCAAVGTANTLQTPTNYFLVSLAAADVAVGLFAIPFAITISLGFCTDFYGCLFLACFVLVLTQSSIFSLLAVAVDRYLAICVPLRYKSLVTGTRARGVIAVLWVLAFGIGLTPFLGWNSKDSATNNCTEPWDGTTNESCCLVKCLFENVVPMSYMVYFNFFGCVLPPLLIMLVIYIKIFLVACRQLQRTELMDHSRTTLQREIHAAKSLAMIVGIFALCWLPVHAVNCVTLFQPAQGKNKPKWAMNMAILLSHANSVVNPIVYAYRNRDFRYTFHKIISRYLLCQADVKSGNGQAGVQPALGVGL
Description: The affinities of the newly synthesized compounds 7–13 and 17–21 were determined in binding studies at human recombinant A1, A2A, and A3 ARs, stably transfected in Chinese hamster ovary (CHO) cells, using [^3H]CCPA (2-chloro-N^6-cyclopentylAdo), [^3H]NECA (5′-N-ethylcarboxamidoAdo), and [^3H]HEMADO (2-hexynyl-N^6-methylAdo) as respective radioligands. Most of the compounds were also evaluated at A2BARs in a functional study using the GloSensor cAMP assay. The results are reported in Table 1 as Ki values in nM (± standard errors). In the case of A2BARs, Ki-values were calculated from IC50-values determined by the inhibition of NECA-stimulated adenylyl cyclase activity.

human recombinant A2AAR = target: T2, human recombinant A2AAR (Homo sapiens, UniProt P29274); assay: Radioligand binding at human A2AAR ([3H]NECA displacement, CHO cell membranes)
T2 construct: expressed in transfected cells; membrane preparation
Description: Most of the compounds were also evaluated at A2BARs in a functional study using the GloSensor cAMP assay. […] In the case of A2BARs, Ki-values were calculated from IC50-values determined by the inhibition of NECA-stimulated adenylyl cyclase activity.
Preparation of membranes: Cell membranes for binding assays were prepared mechanically detaching the cells from the petri and suspending them in a cold hypotonic buffer (5 mM Tris/HCl, 2 mM EDTA, pH 7.4). The cell suspension was homogenized (Ultra-Turrax, 2 × 15 s at maximum speed) and the homogenate centrifuged for 10 min (4 °C) to 1000× g. […] The amount of the protein suspension was determined according to the […] using the BCA Protein Assay Kit (Pierce), frozen in liquid nitrogen, and stored at −80 °C.
Binding assays: The dissociation constants of the radioligand (KD) were calculated through saturation assays, while the dissociation constants of the compounds under study (Ki) were determined by competition experiments. All binding data were calculated by nonlinear regression curves using the software GraphPad Prism 5 (GraphPad Software, San Diego, CA, USA). The increasing concentrations of the radioligand saturation binding ([^3H]-CCPA for the A1 receptor subtype, [^3H]-NECA for the A2A receptor subtype, and [^3H]-HEMADO for the A3 receptor) subtype were incubated in a total volume of 250 μL containing 0.2 U/mL of Ado deaminase (ADA) and 12 micrograms of membrane proteins in the specific buffer. In competition experiments for the A1 receptor subtype, each compound was added at increasing concentrations, to the well containing 1 nM of [^3H]-CCPA, to a final volume of 200 μL. The samples were left to incubate for 3 h at room temperature, filtered in a filter 96-well plate (UniFilter GF/C, Perkin-Elmer Life and Analytical Science, Boston, MA) using the FilterMate Cell Harvester (Perkin-Elmer), and washed 3 times with cold distilled water. After drying the filter plate at 40 °C for 30′, they 20 μL of scintillating liquid (Microscint-20, Perkin-Elmer) was added to each well, and then the radioactivity was quantized with the MicroBeta2 Plate Counter (Perkin-Elmer). The conditions for binding experiments at A2A and A3 receptor subtypes were essentially the same as for the A1AR using [^3H]-NECA (N-ethylcarboxyamideAdo) at a concentration of 10 nM and [^3H]-HEMADO (2-(1-hexyne)-N^6-methylAdo) at a concentration of 1 nM as radioligands, respectively. The samples were incubated with 12 micrograms of protein for 3 h at room temperature and filtered as described above.
The non-specific binding was determined in the presence of 1 mM theophylline for the A1AR, or 100 µM R-PIA (N^6-(1-methyl-2-phenylethyl)Ado) for the A2A and A3 receptors.

[1] = test system: BV-2 murine microglial cells; assay: MTT viability assay in BV-2 cells; type: cell-based; conditions: 24 h, 50–5000 nM, up to 5 μM
Description: First of all, we verified the potential cytotoxicity of 13 in our cell model system. BV-2 cells were treated with increasing concentrations of the compound for 24 h and cell viability was evaluated by MTT assay (Figure 4A).
Cell Cultures and Treatments: BV-2 murine microglial cells (a gift from Prof. Elisabetta Blasi of the University of Modena and Reggio Emilia, Modena, Italy) were maintained at 37 °C and 5% CO2 in a humidified incubator and grown in DMEM supplemented with 10% (v/v) low-endotoxin fetal bovine serum (Euroclone—Milan, Italy), 2 mM L-glutamine, 50 U/mL penicillin, and 50 μg/mL streptomycin (Sigma-Aldrich–Merck, Milan, Italy). Cells were seeded at 50,000 cells/mL in 96-well tissue culture plates for the viability assay, in 6-well tissue culture plates for the Griess assay and RT-PCR assay. BV-2 cells were treated for 24 h with ANR 94 or 13 at different concentrations and then exposed to LPS (100 ng/mL; Sigma-Aldrich–Merck) for a further 24 h.
MTT Viability Assay: MTT assay was performed to quantify the viability of BV-2 cells as previously reported. […] The absorbance was measured at 595 nm using a microplate spectrophotometer (VICTOR3 V Multilabel Counter; PerkinElmer, Wellesley, MA, USA). Data are expressed as a percentage of the control cells, which is considered 100% cell viability.

T2 sequence (P29274 whole entry): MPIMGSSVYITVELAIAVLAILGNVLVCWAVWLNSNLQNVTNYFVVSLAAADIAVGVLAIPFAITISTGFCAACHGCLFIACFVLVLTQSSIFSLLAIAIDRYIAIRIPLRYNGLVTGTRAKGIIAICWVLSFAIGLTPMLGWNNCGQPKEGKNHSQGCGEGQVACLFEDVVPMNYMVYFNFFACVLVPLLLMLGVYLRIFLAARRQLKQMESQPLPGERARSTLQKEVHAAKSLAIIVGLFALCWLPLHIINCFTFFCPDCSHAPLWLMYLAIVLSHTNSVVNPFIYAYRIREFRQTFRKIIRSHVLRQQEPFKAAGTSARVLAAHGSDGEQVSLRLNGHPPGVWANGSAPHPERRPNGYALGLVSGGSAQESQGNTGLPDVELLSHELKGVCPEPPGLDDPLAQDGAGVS

For CCn1c(-c2ccco2)nc2c(N)nc(NCCc3ccc(O)cc3)nc21 [compound 13, 4-(2-((6-Amino-9-ethyl-8-(furan-2-yl)-9H-purin-2-yl)amino)ethyl)phenol], the Ki (A2BAR) was 1430 nM, the Ki (human recombinant A2AAR; displacement of [3H]NECA, CHO membranes, n = 3–5, means ± standard errors) was 1.8 nM and the “selectivity A1/A2A” value (human recombinant A2AAR; ratio of Ki values) was 28. The “selectivity A2B/A2A” value (human recombinant A2AAR; ratio of Ki values) was 796, the “selectivity A3/A2A” value (human recombinant A2AAR; ratio of Ki values) was 7 and the “cytotoxicity (cell viability, MTT)” value [1] was “did not show any cytotoxicity”.

— article PMC9032385, “A2A Adenosine Receptor Antagonists: Are Triazolotriazine and Purine Scaffolds Interchangeable?” (Molecules, 2022)
